These results are taken from PubChem BioAssay (NCI).

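Protocol summary: plate cells (96-well), add compound at 5 concentrations, incubate 48 h, interpolate endpoints linearly. TGI is the concentration that stops growth completely.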

In the first experiment the test system is UACC-62 melanoma. Description: NCI tumour cell line growth inhibition, 48 h.
Regarding `C=CCCC(=O)CC(O)(C(F)(F)F)C(F)(F)F`, the TGI was more than 100 µM.

`CC(=O)c1ccc2c3c1[C@@H]1O[C@@H]1c1cccc(c1-3)[C@@H]1O[C@H]21` gave a TGI of 31.1 µM.

`CCN1C(=O)C(=C/C=C/c2ccc([N+](=O)[O-])cc2)C(=O)N(CC)C1=S`: the TGI was 34.7 µM.

A further experiment relates to SK-MEL-28 melanoma. The experiment can be described thus: NCI tumour cell line growth inhibition, 48 h.
As for `Nc1c(Cl)ncnc1N[C@@H]1C[C@H]1CO`, the TGI was more than 100 µM.

With `C=CCCC(=O)CC(O)(C(F)(F)F)C(F)(F)F`, the TGI is more than 100 µM.

Consider `CC(=O)c1ccc2c3c1[C@@H]1O[C@@H]1c1cccc(c1-3)[C@@H]1O[C@H]21`, for which the TGI worked out at 13 µM.

Consider `CCN1C(=O)C(=C/C=C/c2ccc([N+](=O)[O-])cc2)C(=O)N(CC)C1=S`, for which the TGI came to 31.9 µM.

The next experiment has as its system HCC-2998 colon. The experiment can be described thus: NCI tumour cell line growth inhibition, 48 h.
The compound `Nc1c(Cl)ncnc1N[C@@H]1C[C@H]1CO` gave a TGI of more than 100 µM.

`C=CCCC(=O)CC(O)(C(F)(F)F)C(F)(F)F` yielded a TGI of more than 100 µM.

Regarding `CCN1C(=O)C(=C/C=C/c2ccc([N+](=O)[O-])cc2)C(=O)N(CC)C1=S`, the TGI is more than 100 µM.

The next experiment has as its system COLO 205 colon. The experiment can be described thus: NCI tumour cell line growth inhibition, 48 h.
In turn, `Nc1c(Cl)ncnc1N[C@@H]1C[C@H]1CO` showed a TGI of more than 100 µM.

As to `C=CCCC(=O)CC(O)(C(F)(F)F)C(F)(F)F`, the TGI was more than 100 µM.

In turn, `CC(=O)c1ccc2c3c1[C@@H]1O[C@@H]1c1cccc(c1-3)[C@@H]1O[C@H]21` yielded a TGI of 28.2 µM.

As to `CCN1C(=O)C(=C/C=C/c2ccc([N+](=O)[O-])cc2)C(=O)N(CC)C1=S`, the TGI is more than 100 µM.

For a further experiment, the system named is DU-145 prostate. The experiment can be described thus: NCI tumour cell line growth inhibition, 48 h.
Consider `Nc1c(Cl)ncnc1N[C@@H]1C[C@H]1CO`, for which the TGI is more than 100 µM.

Take `C=CCCC(=O)CC(O)(C(F)(F)F)C(F)(F)F`: the TGI was more than 100 µM.

`CC(=O)c1ccc2c3c1[C@@H]1O[C@@H]1c1cccc(c1-3)[C@@H]1O[C@H]21`: the TGI was 23.2 µM.

Turning to `CCN1C(=O)C(=C/C=C/c2ccc([N+](=O)[O-])cc2)C(=O)N(CC)C1=S`, the TGI turned out to be 33.3 µM.

The test system of the next experiment is SK-OV-3 ovarian. Description: NCI tumour cell line growth inhibition, 48 h.
The compound `C=CCCC(=O)CC(O)(C(F)(F)F)C(F)(F)F` gave a TGI of more than 100 µM.

`CC(=O)c1ccc2c3c1[C@@H]1O[C@@H]1c1cccc(c1-3)[C@@H]1O[C@H]21` gave a TGI of 76.1 µM.

As to `CCN1C(=O)C(=C/C=C/c2ccc([N+](=O)[O-])cc2)C(=O)N(CC)C1=S`, the TGI was more than 100 µM.

A further experiment deals with U251 CNS. Description: NCI tumour cell line growth inhibition, 48 h.
Take `Nc1c(Cl)ncnc1N[C@@H]1C[C@H]1CO`: the TGI is more than 100 µM.

Consider `C=CCCC(=O)CC(O)(C(F)(F)F)C(F)(F)F`, for which the TGI is more than 100 µM.

On to `CC(=O)c1ccc2c3c1[C@@H]1O[C@@H]1c1cccc(c1-3)[C@@H]1O[C@H]21`, for which the TGI stood at 19.3 µM.

As to `CCN1C(=O)C(=C/C=C/c2ccc([N+](=O)[O-])cc2)C(=O)N(CC)C1=S`, the TGI came out at 32.4 µM.

The next experiment relates to IGROV1 ovarian. The experiment can be described thus: NCI tumour cell line growth inhibition, 48 h.
In turn, `Nc1c(Cl)ncnc1N[C@@H]1C[C@H]1CO` had a TGI of more than 100 µM.

As for `C=CCCC(=O)CC(O)(C(F)(F)F)C(F)(F)F`, the TGI is more than 100 µM.

`CC(=O)c1ccc2c3c1[C@@H]1O[C@@H]1c1cccc(c1-3)[C@@H]1O[C@H]21` returned a TGI of 2.44 µM.

For the compound `CCN1C(=O)C(=C/C=C/c2ccc([N+](=O)[O-])cc2)C(=O)N(CC)C1=S`, the TGI is 32.6 µM.

The subject of the next experiment is MDA-N. The experiment can be described thus: NCI tumour cell line growth inhibition, 48 h.
`Nc1c(Cl)ncnc1N[C@@H]1C[C@H]1CO` registered a TGI of more than 100 µM.

`C=CCCC(=O)CC(O)(C(F)(F)F)C(F)(F)F` came in with a TGI of more than 100 µM.

`CC(=O)c1ccc2c3c1[C@@H]1O[C@@H]1c1cccc(c1-3)[C@@H]1O[C@H]21`: the TGI came to 39.9 µM.

`CCN1C(=O)C(=C/C=C/c2ccc([N+](=O)[O-])cc2)C(=O)N(CC)C1=S` displayed a TGI of 67 µM.

The subject of the next experiment is CCRF-CEM leukemia. Description: NCI tumour cell line growth inhibition, 48 h.
Consider `Nc1c(Cl)ncnc1N[C@@H]1C[C@H]1CO`, for which the TGI was more than 100 µM.

`C=CCCC(=O)CC(O)(C(F)(F)F)C(F)(F)F` showed a TGI of more than 100 µM.

`CC(=O)c1ccc2c3c1[C@@H]1O[C@@H]1c1cccc(c1-3)[C@@H]1O[C@H]21` registered a TGI of more than 100 µM.

For the compound `CCN1C(=O)C(=C/C=C/c2ccc([N+](=O)[O-])cc2)C(=O)N(CC)C1=S`, the TGI was more than 100 µM.

The subject of the next experiment is NCI-H226 lung. Description: NCI tumour cell line growth inhibition, 48 h.
`C=CCCC(=O)CC(O)(C(F)(F)F)C(F)(F)F` had a TGI of more than 100 µM.

Regarding `CC(=O)c1ccc2c3c1[C@@H]1O[C@@H]1c1cccc(c1-3)[C@@H]1O[C@H]21`, the TGI was more than 95.1 µM.

In the case of `CCN1C(=O)C(=C/C=C/c2ccc([N+](=O)[O-])cc2)C(=O)N(CC)C1=S`, the TGI was more than 100 µM.

In a further experiment the test system is A549 NSCLC. The experiment can be described thus: NCI tumour cell line growth inhibition, 48 h.
Regarding `Nc1c(Cl)ncnc1N[C@@H]1C[C@H]1CO`, the TGI was more than 100 µM.

`C=CCCC(=O)CC(O)(C(F)(F)F)C(F)(F)F` came in with a TGI of more than 100 µM.

For the compound `CC(=O)c1ccc2c3c1[C@@H]1O[C@@H]1c1cccc(c1-3)[C@@H]1O[C@H]21`, the TGI was 37.4 µM.

For `CCN1C(=O)C(=C/C=C/c2ccc([N+](=O)[O-])cc2)C(=O)N(CC)C1=S`, the TGI is more than 100 µM.

The subject of the next experiment is EKVX NSCLC. Description: NCI tumour cell line growth inhibition, 48 h.
The compound `Nc1c(Cl)ncnc1N[C@@H]1C[C@H]1CO` came in with a TGI of more than 100 µM.

`C=CCCC(=O)CC(O)(C(F)(F)F)C(F)(F)F` displayed a TGI of more than 100 µM.

`CC(=O)c1ccc2c3c1[C@@H]1O[C@@H]1c1cccc(c1-3)[C@@H]1O[C@H]21` gave a TGI of 39.5 µM.

For `CCN1C(=O)C(=C/C=C/c2ccc([N+](=O)[O-])cc2)C(=O)N(CC)C1=S`, the TGI is 62.7 µM.

The test system of the next experiment is SK-MEL-2 melanoma. Description: NCI tumour cell line growth inhibition, 48 h.
The compound `Nc1c(Cl)ncnc1N[C@@H]1C[C@H]1CO` had a TGI of more than 100 µM.

`C=CCCC(=O)CC(O)(C(F)(F)F)C(F)(F)F` had a TGI of more than 100 µM.

Regarding `CC(=O)c1ccc2c3c1[C@@H]1O[C@@H]1c1cccc(c1-3)[C@@H]1O[C@H]21`, the TGI was more than 57.1 µM.

Turning to `CCN1C(=O)C(=C/C=C/c2ccc([N+](=O)[O-])cc2)C(=O)N(CC)C1=S`, the TGI stood at 65.3 µM.

A further experiment concerns M14 melanoma. The experiment can be described thus: NCI tumour cell line growth inhibition, 48 h.
`Nc1c(Cl)ncnc1N[C@@H]1C[C@H]1CO` yielded a TGI of more than 100 µM.

`C=CCCC(=O)CC(O)(C(F)(F)F)C(F)(F)F` returned a TGI of more than 100 µM.

For the compound `CC(=O)c1ccc2c3c1[C@@H]1O[C@@H]1c1cccc(c1-3)[C@@H]1O[C@H]21`, the TGI amounted to 22.3 µM.

In the case of `CCN1C(=O)C(=C/C=C/c2ccc([N+](=O)[O-])cc2)C(=O)N(CC)C1=S`, the TGI was more than 100 µM.
